One data set deals with striatal synaptosomes. As to conditions: [3H] DA 1 to 10 nM, 30 degree C; for Km: read-out: [3H] DA uptake Km, mean±SEM of three. On the procedure:
Dopamine (DA) uptake was measured as follows. Striatal synaptosome tissue pools (3 animals/pool) were homogenized in 100 volume (v/w) of 0.32 M sucrose in a teflonglass homogenizer and centrifuged at 12,000 rpm for 10 minutes. The crude synaptosomal pellet was resuspended in 0.32 M sucrose at a concentration of 30 mg/ml (original wet weight) and divided into 30 μl aliquots. Each aliquot was added with 270 μl of Krebs-Ringer phosphate buffer with increasing concentrations of [^3H] DA (final 1–10 nM, […], Amersham Pharmacia Biotech UK Ltd.). After incubating the resultant solution for 3 minutes at 30° C., uptake was quickly terminated by filtration through Whatman GF/C glass filters. The filters were rinsed three times with 2.5 ml ice-cold 0.32 M sucrose and measured by using a liquid scintillation counter at an efficiency of 50%. Blank values were measured in the presence of 10 μM GBR12909.
[^3H] DA was mixed with striatal synaptosomes and [^3H] DA uptake into tissues was measured (the above-mentioned method A-6-1). The homogenate of the striatal synaptosomes was incubated for 2 minutes at 30° C. in the presence of [^3H] DA (1 to 10 nM).

For another data set, the system named is mice. Kind of data set: Effects of psychostimulant drugs on locomotor activity. In kind it is in vivo, mouse. As for the experimental part:
The effects of psychostimulant drugs on locomotor activity were measured in a clear acrylic chamber (40×40×40 cm) by measuring animal movements with an electromagnetic activity monitoring system (sensor unit 0603, scanner 1099, Panlab). Before drug administration, the animals were acclimated to the measurement circumstance for at least 90 minutes. The animals were then administered with a stimulant drug, methamphetamine (METH) (1 mg/kg, s.c.), GBR12909 (2 mg/kg, i.p.), apomorphine (1 mg/kg, s.c.), or p-chloro-amphetamine (2 mg/kg, i.p.), and saline as administered to a control, and locomotor activity was monitored for the next 60 minutes.

In another data set the test system is nucleus accumbens (NAC). The experiment in a line: In vivo microdialysis of nucleus accumbens: METH-induced DA release and locomotion. The arrangement: species or system mouse. As for the experimental part:
Mice were anaesthetized with sodium pentobarbital (80 mg/kg i.p.) and placed in a stereotaxic apparatus. A hole was drilled through the skull and an intracerebral guide cannula (CMA 11, CMA/Microdialysis AB) was inserted into the nucleus accumbens (NAC) and fixed with dental cement. The stereotaxic coordinates for implantation of the guide cannula in both wild-type and PTPζ-deficient mice were: anterior, +1.1 mm, ventral, +3.6 mm, lateral, +1.0 mm to the surface of bregma. 24 hours after the surgery, mice were chained to a counterbalance lever arm attached to a locomotor activity chamber (30×30 cm) with an infrared monitoring apparatus (SCANET LC-10, Toyo Sangyo Co., Ltd.). Dialysis probes (membrane length 1 mm; external diameter 0.24 mm; cuprophane CUP 11, CMA/Microdialysis AB) were inserted through the guide cannula and perfusion was performed with artificial cerebrospinal fluid (ACSF), pH 7.4, (in mM; 145.ONaCl, 2.7 KCl, 1.2 CaCl2, 1.0 MgCl2, and 2.0 NaH2PO4) at a flow rate of 2 μl/min. Perfusates were collected from freely moving animals every 20 minutes in a tube containing 20 μl of 0.4 M HClO4 (CMA 170). Samples were collected and assayed using HPLC-ECD as described above except for the following modifications: the column was MCM C-18 (4.6×150 mm) and the buffer contained 75 mM NaH2PO4, 1.7 mM 1-octanesulfonic acid sodium salt, 0.1 mM triethylamine, 25 μM EDTA·2Na and 10% acetonitrile, at flow rate of 0.55 ml/min at 30° C. The electrode was set at +320 mV. METH administration (1 mg/kg s.c.) or local infusion of high K^+ solution (in mM: 47.7 NaCl, 100.0 KCl, 1.2 CaCl2, 1.0 MgCl2, and 2.0 NaH2PO4, pH 7.4) through the microdialysis probe was performed after the state became steady.

The test system of a further data set is mouse gastric epithelium. Kind of data set: Gastric ulcer formation caused by oral pleiotrophin. In kind it is in vivo. As to conditions: 48 hours. As for the experimental part: The role of PTPζ in gastric ulcer formation caused by pleiotrophin was examined as follows. After a mouse (female) of 4 weeks old was starved for 24 hours (fed water ad libitum), pleiotrophin (Peptide Institute, Inc.) was orally administered to the mouse with a sound. 48 hours later, gastric specimens were prepared and the surface of inside wall of stomach was observed by a stereomicroscope, and then pathologic specimens were prepared by hematoxylen eosin staining and analyzed.

Results on five molecules are retold here after patent publication US7166761B2, “Method of screening PTPζ activity promoter or inhibitor” (priority 2000, dated 2007).

One may read the Km as the substrate concentration at which the rate is half of its maximum.

Where two headings read alike, the source gives them in different places.

In the case of `NCCc1ccc(O)c(O)c1` [[^3H] DA, dopamine], in the data set on striatal synaptosomes (PTPζ+/+ mice), the “[3H] DA uptake Vmax” value is 45.74 ± 2.77 pmol/3 min/mg and the Km amounted to 0.109 ± 0.00245 µM. Also, in the data set with striatal synaptosomes (PTPζ−/− mice), the “[3H] DA uptake Vmax” value is reported as 58.70 ± 1.03 pmol/3 min/mg and the Km is 0.147 ± 0.0113 µM.

As to `CN1CCc2cccc3c2[C@H]1Cc1ccc(O)c(O)c1-3` [apomorphine], the “locomotor activity, responsiveness of PTPζ-deficient mice” value in the data set with mice (2 mg/kg, s.c., total counts during 60 minutes after administration) was “normal”.

As to `CN[C@@H](C)Cc1ccccc1` [methamphetamine], the “locomotor response, PTPζ−/− compared to wild-type mice” value in the data set with mice (1 mg/kg, s.c., electromagnetic sensors, n=9 per genotype) was “significantly attenuated locomotor response”. In addition, in the data set with nucleus accumbens (NAC) (PTPζ−/− mice (n=6), 1 mg/kg, s.c., microdialysis), the “DA release in NAC, PTPζ-deficient compared to wild-type mice” value was “markedly diminished DA release”. Also, the “METH-enhanced locomotion, PTPζ−/− compared to wild-type mice” value in the data set with nucleus accumbens (NAC) (freely moving animals during microdialysis, infrared monitoring apparatus) is “statistically attenuated”. Moreover, the “extracellular DA in nucleus accumbens” value in the data set with nucleus accumbens (NAC) (wild-type mice (n=7), 1 mg/kg, s.c., microdialysis) is on record as “definitely increased”.

As for `CC(N)Cc1ccc(Cl)cc1` (centres unmarked) [p-chloro-amphetamine], in the data set with mice (2 mg/kg, i.p., total counts during 60 minutes after administration, 5-HT liberator), the “locomotor activity, sensitivity of PTPζ-deficient mice” value was “hyposensitive”.

B1: pleiotrophin: a heparin-binding secretory protein of 18 kD that binds to extracellular regions of PTPζ (protein, UniProt P21246 33-168, looked up)
Pleiotrophin: GKKEKPEKKVKKSDCGEWQWSVCVPTSGDCGLGTREGTRTGAECKQTMKTQRCKIPCNWKKQFGAECKYQFQAWGECDLNTALKTRTGSLKRALHNAECQKTVTISKPCGKLTKPKPQAESKKKKKEGKKQEKMLD
Turning to B1, the “hematoxylen eosin staining of gastric specimens” value is “totally normal” in the data set on mouse gastric epithelium (PTPζ-deficient mice) and “obvious damage” in the data set with mouse gastric epithelium (wild-type mice). Moreover, the “epithelial damage on gastric epithelium under a stereomicroscope” value in the data set with mouse gastric epithelium (PTPζ−/− mice) was “no damage was observed”; in the data set with mouse gastric epithelium (wild-type mice), “Profuse bleeding”.
